{"source": "patent US20110217293A1", "about": "“Uses of morelloflavone” (priority 2008, published 2011)", "key": {"[1]": {"system": "Ldlr−/−Apobec1−/− mice", "assay": "Immunohistochemical and TUNEL analysis of atherosclerotic lesions", "type": "in vivo, mouse", "conditions": "aortic root, 8 months diet", "excerpt": "For the cross sectional analyses of atherosclerosis, the roots of the ascending aortae were embedded in OCT compound (Tissue-Tek®, Sakura-Fineteck U.S.A., Torrance, Calif.). The 5-μm cryostat sections were obtained at the levels of aortic valve leaflets and subjected to hematoxylin and eosin (H&E), TUNEL, and other immunohistochemical staining as described below. In both methods of atherosclerosis quantification, the images of aortae were digitally captured and stored in the TIFF format, using the ScanScope slide scanning system (Nikon, Melville, N.Y.). The quantification of the atherosclerotic area was performed by Image J software (NIH, Bethesda, Md.) and expressed at lesion areas (μm^2).\nIn order to identify within the intima vascular smooth muscle cells, macrophages, and proliferating cells, the tissue was stained using anti-smooth muscle cell alpha-actin (SMA) (catalog no. ab5694, Abcam, Cambridge, Mass.), anti-macrophage surface glycoproteins (F4/80, catalog no. ab6640, Abcam), and anti-Ki67 (Clone TEC-3, DAKO, Carpinteria, Calif.) antibodies, respectively, as described previously. Values are expressed as means±SD. Comparisons of parameters between two groups were made with the two-tailed Student's t test. When appropriate, ANOVA was performed to compare multiple groups. A value of P<0.05 was considered statistically significant."}, "[2]": {"system": "vascular smooth muscle cells", "assay": "Lamellipodium formation assay", "type": "cell-based, mouse", "design": "effect on morphology of vascular smooth muscle cells: dose or concentration left out as unconfirmed", "conditions": "for lamellipodium index: 5% serum, 3 hrs", "procedure": "Mouse vascular smooth muscle cells, isolated as described (13), were maintained in 231 media (Cascade Biologics, Portland, Oreg.) supplemented with SMGS (Cascade Biologics) in a humidified incubator at 37° C. with 5% CO2. Cells from passages 4-9 were used in all experiments. All experiments were performed in subconfluent, unsynchronized cells growing in SMGS except for the lamellipodium formation assay.\nThe lamellipodium formation assay was performed as described (14). In brief, mouse vascular smooth muscle cells (serum-starved for 24 hrs) were seeded onto fibronectin-coated wells of chamber slides (CultureSlide, BD BioCoat Fibronectin) and incubated with various concentrations of morelloflavone (0, 1, and 10 mM) in the presence or absence of serum for 3 hrs at 37° C. Then, cells were fixed with 4% paraformaldehyde, permeabilized with 0.1% Triton X-100, stained with Alexa Fluor 594-Phallidin (Invitrogen-Molecular Probes) and DRAQ5 (Biostatus, Ltd, Leicestershire, UK), and viewed with the use of a Leica DM6000 confocal microscope. Lamellipodium indices were calculated as the number of lamellipodia divided by the total number of cells counted."}, "[3]": {"system": "apoE−/− mice", "assay": "Mouse carotid artery injury assay (morphometry, TUNEL, Ki-67, p-ERK staining)", "type": "in vivo", "conditions": "for External elastic lamina area / Internal elastic lamina area / Luminal area / Medial area / Neointimal area: 0.15% diet", "procedure": "The carotid artery injury assay was performed as described by Kuhel (16). Male apoE−/− mice were obtained from Jackson Laboratory (Bar Harbor, Me.) and maintained on a 12 hour light/dark cycle. All animal experimentation protocols were performed under institutional guidelines of animal welfare, in accordance with NIH guidelines. Mice were fed either normal rodent chow diet (5001, LabDiet) (n=10) or normal chow diet containing 0.15% morelloflavone (w/w) (n=9). This diet corresponded to 200 mg/kg morelloflavone if a 30 gm mouse consumes 4 grams of chow. Mice were placed on these diets for 7 days before they underwent carotid artery denudation by the insertion of an epoxy resin (Epon) probe as described (16).\nBriefly, the entire length of the left carotid artery was exposed and the distal bifurcation of the carotid artery was looped proximally and ligated distally with a 7-0 suture. A transverse arteriotomy was made between the 7-0 silk sutures and the resin probe was inserted, advanced toward the aortic arch, and withdrawn 5 times. The probe was then removed, the proximal 7-0 suture was ligated, a 6-0 suture was secured, and the incision was closed with 5-0 sterile surgical gut. After surgery, mice were maintained on these diets 9 for 14 days before they were euthanized. After blood was sampled, the arteries of these mice were perfusion-fixed with 10% buffered formalin (pH 7.0) solution at a constant pressure of 100 mm Hg. The entire neck from each mouse was dissected, fixed further in 10% buffered formalin, decalcified, and then embedded in paraffin. Identical whole neck cross sections of […] were made from the distal side of the neck beginning at the point of the distal 7-0 ligature. Whole neck sections were used to evaluate both the injured and the uninjured control vessels on the same section. For each mouse, the 4 levels of serial sections were taken at […] intervals. These sections were stained by Verhoeff-van Gieson (VVG) staining and subjected to morphometric analyses. Images were digitized and captured using a Sony video connected to a personal computer.\nMeasurements were performed at a magnification of 200 using a Scion Image analysis computer program (Frederick, Md.). Data were obtained from the first 2 levels where endothelial denudation occurred. For each artery, the luminal area, area inside the internal elastic lamina (IELA), and the area encircled by external elastic lamina-IELA were measured. The intimal area (IA) was calculated as the IELA minus luminal area. For the determination of serum morelloflavone levels, animal sera were first digested by proteinase K in the presence of 0.01% SDS. Morelloflavone was then extracted into ethyl acetate and lyophilized.\nFor the analyses of intimal cell proliferation, apopotosis and ERK activation, Ki-67, Terminal deoxynucleotidyl transferase (TdT)-deoxyuridine nick-end labeling (TUNEL), and p-ERK staining, respectively, were performed. Ki-67 was detected using a monoclonal rabbit antibody (Clone TEC-3, DAKO North America, Inc., Carpinteria, Calif.) as described (8-9). Terminal deoxynucleotidyl transferase (TdT)-deoxyuridine nick-end labeling (TUNEL) staining (10) was performed using a FragEL™ DNA fragmentation detection kit (Oncogene Research Products, Boston, Mass.) according to the manufacturer's instructions. The Ki-67 and apoptotic indices, defined as the number of cells with DAB-positive nuclei divided by the total number of cells counted and expressed as a percentage, were then calculated. All cells within the intima were counted. Values are expressed as means±SD. Comparisons of parameters between two groups were made with Student's t test. When appropriate, ANOVA was performed to compare multiple groups. A value of P<0.05 was considered statistically significant."}}, "note": "Entries after “also recorded” stand apart in the source; their conditions may differ.", "data": [{"smiles": "O=C1c2c(O)cc(O)cc2O[C@H](c2ccc(O)cc2)[C@H]1c1c(O)cc(O)c2c(=O)cc(-c3ccc(O)c(O)c3)oc12", "note": "[morelloflavone, 5,7, 4′, 5″, 7″, 3″, 4″-heptahydroxy-[3,8″]-flavonylflavanone]", "values": [{"measurement": "Ki-67-positive cells in atherosclerotic lesions", "setting": "[1]", "result": "0.0011±0.0003", "unit": "cells/μm^2"}, {"measurement": "Ki-67 index in atherosclerotic lesions", "setting": "[1]", "result": "1.6±0.5", "unit": "%"}, {"measurement": "SMA-positive cells (SMA index) in atherosclerotic lesions", "setting": "[1]", "result": "0.0026±0.0007", "unit": "cells/μm^2"}, {"measurement": "SMA-positive cells (VSMCs) in atherosclerotic lesions", "setting": "[1]", "result": "15.4±3.5", "unit": "cells/section"}, {"measurement": "TUNEL index in atherosclerotic lesions", "setting": "[1]", "result": "0.4±0.2", "unit": "%"}, {"measurement": "TUNEL-positive cells in atherosclerotic lesions", "setting": "[1]", "result": "0.00025±0.00008", "unit": "cells/μm^2"}, {"measurement": "macrophages (F4/80-positive cells) in the lesions", "setting": "[1]", "result": "32.3±8.0", "unit": "cells/section"}, {"measurement": "macrophages (F4/80 index) in the lesions", "setting": "[1]", "result": "0.0042±0.0018", "unit": "cells/μm^2"}, {"measurement": "reduction of SMA-positive cells per section vs control", "setting": "[1]", "result": 43, "unit": "%"}, {"measurement": "reduction of SMA-positive cells per μm^2 vs control", "setting": "[1]", "result": 32, "unit": "%"}, {"measurement": "lamellipodium index", "setting": "[2]; 1 mM morelloflavone", "result": "0.05±0.001"}, {"measurement": "lamellipodium index", "setting": "[2]; 10 mM morelloflavone", "result": "0.033±0.006"}, {"measurement": "effect on morphology of vascular smooth muscle cells", "setting": "[2]; absence of serum, any concentration (0, 1)", "result": "did not change the morphology"}, {"measurement": "effect on lamellipodium indices / formation", "setting": "[2]; serum stimulated, 1-10 mM", "result": "significantly decreased lamellipodium indices in a dose-dependent fashion; also recorded: failed to increase lamellipodium indices; also recorded: blocks"}, {"measurement": "External elastic lamina area", "setting": "[3]; Injured carotid artery", "result": "103000 ± 14300", "unit": "µm²"}, {"measurement": "Internal elastic lamina area", "setting": "[3]; Injured carotid artery", "result": "70000 ± 11100", "unit": "µm²"}, {"measurement": "Luminal area", "setting": "[3]; Injured carotid artery", "result": "62100 ± 10700", "unit": "µm²"}, {"measurement": "Medial area", "setting": "[3]; Injured carotid artery", "result": "39300 ± 15100", "unit": "µm²"}, {"measurement": "Neointimal area", "setting": "[3]; Injured carotid artery", "result": "7860 ± 4050", "unit": "µm²"}, {"measurement": "Neointimal area", "setting": "[3]; Injured carotid artery, listed as Morelloflavone", "result": "7860 ± 4050", "unit": "µm²"}, {"measurement": "External elastic lamina area", "setting": "[3]; Uninjured carotid artery", "result": "93100 ± 9140", "unit": "µm²"}, {"measurement": "Internal elastic lamina area", "setting": "[3]; Uninjured carotid artery", "result": "62900 ± 5900", "unit": "µm²"}, {"measurement": "Luminal area", "setting": "[3]; Uninjured carotid artery", "result": "62300 ± 5900", "unit": "µm²"}, {"measurement": "Medial area", "setting": "[3]; Uninjured carotid artery", "result": "30200 ± 14400", "unit": "µm²"}, {"measurement": "Ki-67 indices", "setting": "[3]; neointima of injured carotid artery", "result": "0.17±0.41", "unit": "%"}, {"measurement": "TUNEL indices", "setting": "[3]; neointima of injured carotid artery, index expressed as a percentage", "result": "16.0±4.6"}, {"measurement": "sections with nuclear p-ERK signals in the neointima", "setting": "[3]; one out of 8 sections of treated animals", "result": 12.5, "unit": "%"}, {"measurement": "effect on ERK activation (p-ERK positivity) in the neointima", "setting": "[3]; oral morelloflavone", "result": "decreases ERK activation; also recorded: reduced p-ERK positivity; also recorded: less ERK activation"}, {"measurement": "effect on injury-induced neointimal formation (restenosis)", "setting": "[3]; oral, 0.15% w/w in chow, 7 days before and 14 days after injury, apoE−/− mice", "result": "significantly less neointimal formation; also recorded: reduced neointimal formation; also recorded: significantly blocked injury-induced neointimal formation; also recorded: blocks restenosis"}]}]}
